Laboratory results: paper PMC10568103, “Quantification of soluble epoxide hydrolase inhibitors in experimental and clinical samples using the nanobody-based ELISA” (Journal of Pharmaceutical Analysis, 2023)

Experiments:
[1] = molecular target: T1, human sEH (Homo sapiens, UniProt P34913); assay: Activity on the target sEH enzyme; type: biochemical
T1 sequence (P34913 1-555): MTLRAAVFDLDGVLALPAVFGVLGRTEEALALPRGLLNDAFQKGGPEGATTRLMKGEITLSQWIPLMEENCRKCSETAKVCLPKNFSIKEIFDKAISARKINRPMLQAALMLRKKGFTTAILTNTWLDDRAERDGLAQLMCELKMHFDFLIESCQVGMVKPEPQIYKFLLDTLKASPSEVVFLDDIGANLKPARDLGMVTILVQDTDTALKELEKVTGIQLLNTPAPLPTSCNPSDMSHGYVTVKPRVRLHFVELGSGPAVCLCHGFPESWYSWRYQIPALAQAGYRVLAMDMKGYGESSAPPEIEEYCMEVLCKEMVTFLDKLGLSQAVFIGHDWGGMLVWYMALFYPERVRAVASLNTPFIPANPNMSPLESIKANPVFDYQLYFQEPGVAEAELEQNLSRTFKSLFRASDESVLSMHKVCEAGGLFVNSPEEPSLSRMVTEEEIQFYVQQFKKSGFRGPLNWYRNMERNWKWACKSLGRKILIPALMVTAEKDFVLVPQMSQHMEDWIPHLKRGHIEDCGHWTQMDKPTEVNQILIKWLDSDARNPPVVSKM

[2] = tested on: Nb-EC03; assay: Nb-based indirect competitive ELISA for EC5026 (EC5026 immunoassay); settings: for EC5026 immunoassay CR: CR% = IC50 (EC5026)/IC50 (analog) × 100%; for EC5026 immunoassay IC50: Nb-EC03, cAg 2-BSA
Procedure: (d) 100 μL of HRP-anti-HA was introduced, incubated and shaken for another 60 min; (e) after the final washing step, 100 μL of the TMB substrate solution was added and incubated for 15 min, followed by being stopped by 50 μL of H2SO4 solution (1.0 M). […] The linear range was established between the IC20 value and the IC80 value.

[3] = tested on: Nb-TP02; assay: Nb-based indirect competitive ELISA for TPPU (TPPU immunoassay); type: binding, llama; settings: for TPPU immunoassay CR: CR% = IC50 (TPPU)/IC50 (analog) × 100%; for TPPU immunoassay IC50: Nb-TP02, cAg 6-OVA
Description: The limit of detection (LOD) of Nb-based ELISAs for detecting the concentrations of the sEHI was defined as the concentration of sEHI that provided a 10% inhibition rate (IC10 value). […]

[4] = LC-MS analysis of urine samples from human clinical trial with EC5026; type: in vivo
Procedure: To assess the feasibility of Nb-based ELISAs for EC5026 and TPPU, the human urine and FBS were used as the matrix for precision and accuracy determination. The precision is shown as coefficient variation (CV%). The accuracy is expressed by the recovery, and the recovery is calculated as (Found concentration/Spiked concentration) × 100%. The standard solutions of EC5026 or TPPU were spiked blindly into human urine and FBS to obtain final concentrations of 1.25, 5 and 20 ng/mL, respectively. The experimental urine samples were collected from participants in the human clinical trial for EC5026, and the supernatant was collected by centrifugation (10,000 g, 5 min, 4 °C). The processed clinical samples were divided into two aliquots. One was diluted 10 times and then was detected by the Nb-based ELISA, and the other was for the LC-MS analysis directly in a bind fashion by different scientists.
The urine samples were analyzed by an LC-MS/MS method using Waters (Milford, MA, USA) Acquity UPLC system with Waters Xevo TQS tandem mass spectrometer. The separation was implemented on a Phenomenex Kinetex 150 x 2 mm C18 column. The mobile phases are 0.1 % of acetic acid in water as phase A, 0.1% of acetic acid in methanol as phase B. The gradient of the separation started from 50% of B and increased to 63% of B at 3.6 min then ramped to 95% at 4 min. The flow rate was 0.4 mL/min. The mass spectrometer was operated with negative electrospray ionization. The MRM transitions are 404.2/194 for EC5026, 420.2/194 for both M1 and M2. The source parameters of mass spectrometer are: capillary voltage: –3 KV, desolvation temperature: 300°C, desolvation gas flow: 800 L/hr; cone: 150 L/min; nebulizer: 7 bar.

[5] = molecular target: T1, human sEH; assay: Inhibition of human sEH in vitro (potency unit definition, assay of Jones et al.); type: biochemical; settings: 1 nM human sEH, read-out: 1 Potency unit: concentration permitting the inhibition of 50% of 1 nM of the human sEH
[6] = Subject 1, 0–8 h post exposure to EC5026
[7] = Subject 1, 8–16 h post exposure to EC5026
[8] = Subject 1, 16–24 h post exposure to EC5026
[9] = Subject 1, 24–32 h post exposure to EC5026
[10] = Subject 1, 32–40 h post exposure to EC5026
[11] = Subject 1, 40–48 h post exposure to EC5026
[12] = Subject 2, 0–8 h post exposure to EC5026
[13] = Subject 2, 8–16 h post exposure to EC5026
[14] = Subject 2, 16–24 h post exposure to EC5026
[15] = Subject 2, 24–32 h post exposure to EC5026
[16] = Subject 2, 32–40 h post exposure to EC5026
[17] = Subject 2, 40–48 h post exposure to EC5026
[18] = Subject 3, 0–8 h post exposure to EC5026
[19] = Subject 3, 8–16 h post exposure to EC5026
[20] = Subject 3, 16–24 h post exposure to EC5026
[21] = Subject 3, 24–32 h post exposure to EC5026
[22] = Subject 3, 32–40 h post exposure to EC5026
[23] = Subject 3, 40–48 h post exposure to EC5026

For Nc1ccc(OC(F)(F)F)c(F)c1 [Compound 14, 3-fluoro-4-(trifluoromethoxy)aniline], the IC50 [1] was over 50000 nM, the “EC5026 immunoassay CR” value [2] was under 0.01% and the “EC5026 immunoassay IC50” value [2] was over 150000 ng/mL. The “TPPU immunoassay CR” value [3] was under 0.01% and the “TPPU immunoassay IC50” value [3] was over 300000 ng/mL.
In the case of Nc1ccc(OC(F)(F)F)cc1 [Compound 15, 4-(trifluoromethoxy)aniline], the IC50 [1] is reported as over 50000 nM, the “EC5026 immunoassay CR” value [2] is reported as under 0.01% and the “EC5026 immunoassay IC50” value [2] is reported as over 150000 ng/mL. The “TPPU immunoassay CR” value [3] was under 0.01% and the “TPPU immunoassay IC50” value [3] was over 300000 ng/mL.
For CC[C@H](C)C(=O)N1CCC(NC(=O)Nc2ccc(OC(F)(F)F)c(F)c2)CC1 [EC5026], the “[EC5026] LC-MS analysis” value [4, 6] was 2.96 ng/mL, the “[EC5026] LC-MS analysis” value [4, 7] was 1.41 ng/mL and the “[EC5026] LC-MS analysis” value [4, 8] was 1.81 ng/mL. For the same molecule, the “[EC5026] LC-MS analysis” value [4, 9] was 1.43 ng/mL, the “[EC5026] LC-MS analysis” value [4, 10] was 1.63 ng/mL and the “[EC5026] LC-MS analysis” value [4, 11] was 1.24 ng/mL. The “[EC5026] LC-MS analysis” value [4, 12] was 3.01 ng/mL, the “[EC5026] LC-MS analysis” value [4, 13] was 5.57 ng/mL and the “[EC5026] LC-MS analysis” value [4, 14] was 4.86 ng/mL. The “[EC5026] LC-MS analysis” value [4, 15] was 2.84 ng/mL, the “[EC5026] LC-MS analysis” value [4, 16] was 3.46 ng/mL and the “[EC5026] LC-MS analysis” value [4, 17] was 2.01 ng/mL. The “[EC5026] LC-MS analysis” value [4, 18] was 6.53 ng/mL, the “[EC5026] LC-MS analysis” value [4, 19] was 4.69 ng/mL and the “[EC5026] LC-MS analysis” value [4, 20] was 2.59 ng/mL. The “[EC5026] LC-MS analysis” value [4, 21] was 2.98 ng/mL, the “[EC5026] LC-MS analysis” value [4, 22] was 2.06 ng/mL and the “[EC5026] LC-MS analysis” value [4, 23] was 1.18 ng/mL. For the same molecule, the “EC5026 immunoassay CR” value [2] was 100%, the “Curve parameters IC50” value ([2]; Nb-EC03, cAg 1-BSA (homologous)) was 7.32 ng/mL and the “Curve parameters IC50” value ([2]; Nb-EC03, cAg 1-OVA (homologous)) was 5.68 ng/mL. The “EC5026 immunoassay IC50” value [2] was 1.44 ng/mL, the “Curve parameters IC50” value ([2]; Nb-EC03, cAg 2-OVA (homologous)) was 1.48 ng/mL and the “Curve parameters IC50” value ([2]; Nb-EC03, cAg 3-BSA (heterologous)) was 11.45 ng/mL. For the same molecule, the “Curve parameters IC50” value ([2]; Nb-EC03, cAg 3-OVA (heterologous)) was 12.49 ng/mL, the “TPPU immunoassay CR” value [3] was 86.6% and the “TPPU immunoassay IC50” value [3] was 3.44 ng/mL.
With O=C(Nc1ccc(OC(F)(F)F)cc1)NC1CCNCC1 [Compound 12] the “TPPU immunoassay CR” value [3] was 25.6% and the “TPPU immunoassay IC50” value [3] was 11.66 ng/mL.
For O=C(Nc1ccc(OC(F)(F)F)c(F)c1)NC1CCNCC1 [Compound 11, 1-(3-fluoro-4-(trifluoromethoxy)phenyl)-3-(piperidin-4-yl)urea], the “EC5026 immunoassay CR” value [2] was 34.0%, the “EC5026 immunoassay IC50” value [2] was 4.23 ng/mL and the “TPPU immunoassay CR” value [3] was 33.4%. For the same molecule, the “TPPU immunoassay IC50” value [3] was 8.91 ng/mL.
With CCC(=O)N1CCC(NC(=O)Nc2ccc(OC(F)(F)F)cc2)CC1 [TPPU, 1-trifluoromethoxyphenyl-3-(1-propionylpiperidin-4-yl)urea] the “EC5026 immunoassay CR” value [2] was 52.9%, the “EC5026 immunoassay IC50” value [2] was 2.72 ng/mL and the “TPPU immunoassay CR” value [3] was 100%. For the same molecule, the “Curve parameters IC50” value ([3]; Nb-TP02, cAg 4-BSA (homologous)) was 2.53 ng/mL, the “Curve parameters IC50” value ([3]; Nb-TP02, cAg 4-OVA (homologous)) was 2.76 ng/mL and the “Curve parameters IC50” value ([3]; Nb-TP02, cAg 5-BSA (homologous)) was 4.53 ng/mL. The “Curve parameters IC50” value ([3]; Nb-TP02, cAg 5-OVA (homologous)) was 2.44 ng/mL, the “Curve parameters IC50” value ([3]; Nb-TP02, cAg 6-BSA (heterologous)) was 2.40 ng/mL and the “TPPU immunoassay IC50” value [3] was 2.98 ng/mL.
For C[C@H](O)[C@H](C)C(=O)N1CCC(NC(=O)Nc2ccc(OC(F)(F)F)c(F)c2)CC1 [M2, 1-(3-fluoro-4-(trifluoromethoxy)phenyl)-3-(1-((2S,3S)-3-hydroxy-2-methylbutanoyl)piperidin-4-yl)urea], the “[M2] LC-MS analysis” value [4, 6] was 28.66 ng/mL, the “[M2] LC-MS analysis” value [4, 7] was 61.59 ng/mL and the “[M2] LC-MS analysis” value [4, 8] was 51.04 ng/mL. For the same molecule, the “[M2] LC-MS analysis” value [4, 9] was 67.21 ng/mL, the “[M2] LC-MS analysis” value [4, 10] was 47.44 ng/mL and the “[M2] LC-MS analysis” value [4, 11] was 43.94 ng/mL. For the same molecule, the “[M2] LC-MS analysis” value [4, 12] was 12.99 ng/mL, the “[M2] LC-MS analysis” value [4, 13] was 53.46 ng/mL and the “[M2] LC-MS analysis” value [4, 14] was 59.34 ng/mL. The “[M2] LC-MS analysis” value [4, 15] was 45.69 ng/mL, the “[M2] LC-MS analysis” value [4, 16] was 75.89 ng/mL and the “[M2] LC-MS analysis” value [4, 17] was 52.38 ng/mL. The “[M2] LC-MS analysis” value [4, 18] was 14.93 ng/mL, the “[M2] LC-MS analysis” value [4, 19] was 50.31 ng/mL and the “[M2] LC-MS analysis” value [4, 20] was 106.12 ng/mL. The “[M2] LC-MS analysis” value [4, 21] was 44.20 ng/mL, the “[M2] LC-MS analysis” value [4, 22] was 103.57 ng/mL and the “[M2] LC-MS analysis” value [4, 23] was 158.70 ng/mL. The IC50 [5] was 0.0961 nM, the “EC5026 immunoassay IC50” value [2] was 1.38 ng/mL and the “TPPU immunoassay CR” value [3] was 59.4%. The “TPPU immunoassay IC50” value [3] was 5.01 ng/mL.
In the case of C[C@H](C(=O)N1CCC(NC(=O)Nc2ccc(OC(F)(F)F)c(F)c2)CC1)[C@@H](C)O [M1, 1-(3-fluoro-4-(trifluoromethoxy)phenyl)-3-(1-((2S,3R)-3-hydroxy-2-methylbutanoyl)piperidin-4-yl)urea], the “[M1] LC-MS analysis” value [4, 6] is reported as 24.22 ng/mL, the “[M1] LC-MS analysis” value [4, 7] is reported as 44.30 ng/mL and the “[M1] LC-MS analysis” value [4, 8] is reported as 35.82 ng/mL. For the same molecule, the “[M1] LC-MS analysis” value [4, 9] was 48.89 ng/mL, the “[M1] LC-MS analysis” value [4, 10] was 36.78 ng/mL and the “[M1] LC-MS analysis” value [4, 11] was 33.49 ng/mL. For the same molecule, the “[M1] LC-MS analysis” value [4, 12] was 12.48 ng/mL, the “[M1] LC-MS analysis” value [4, 13] was 38.41 ng/mL and the “[M1] LC-MS analysis” value [4, 14] was 43.37 ng/mL. The “[M1] LC-MS analysis” value [4, 15] was 35.76 ng/mL, the “[M1] LC-MS analysis” value [4, 16] was 55.70 ng/mL and the “[M1] LC-MS analysis” value [4, 17] was 40.74 ng/mL. For the same molecule, the “[M1] LC-MS analysis” value [4, 18] was 13.41 ng/mL, the “[M1] LC-MS analysis” value [4, 19] was 36.41 ng/mL and the “[M1] LC-MS analysis” value [4, 20] was 67.03 ng/mL. The “[M1] LC-MS analysis” value [4, 21] was 31.25 ng/mL, the “[M1] LC-MS analysis” value [4, 22] was 67.62 ng/mL and the “[M1] LC-MS analysis” value [4, 23] was 98.28 ng/mL. For the same molecule, the IC50 [5] was 0.0961 nM, the “EC5026 immunoassay IC50” value [2] was 1.47 ng/mL and the “TPPU immunoassay CR” value [3] was 72.7%. The “TPPU immunoassay IC50” value [3] was 4.10 ng/mL.
